Laboratory results published in US20150164910A1, “ANTIVIRAL COMPOUNDS AND METHODS OF USE” (The Regents of the University of Califonia, priority 2012, published 2015).

How the values were obtained:
[1] = tested on: CVB3-H3; test: Plaque reduction assay, CVB3-H3 in HeLa-RW cells; format: cell-based, coxsackievirus B3; conditions: compound added 30 min before infection, CVB3-H3 MOI 1, HeLa-RW, 6 hours; log10(titer with DMSO only/titer with inhibitor)
[2] = tested on: coxsackievirus B3 (CVB3); test: Cell viability assay, prevention of cell death caused by CVB3 infection; format: cell-based; conditions: for Selectivity index: 50% Cytotoxic concentration/50% activity concentration; for IC50 / EC (peak activity): Enterovirus B; for IC50: read-out: 50% activity concentration (IC50); for EC (peak activity): HeLa-RW cells and CVB3 at low multiplicity of infection, read-out: Peak Activity Conc.
Procedure: Procedure: Enteroviruses rapidly cause cell death, and a cell viability assay was used to examine the cytotoxicity of each compound and to identify the concentration needed to prevent cell death caused by coxsackievirus B3 (CVB3) infection.
Compounds were diluted two-fold and added to wells of 384 well plate. HeLa-RW cells were then added (cytotoxicity testing), or cells and CVB3 were added to provide a low multiplicity of infection to determine concentration of peak activity or 50% maximal concentration. Selectivity index is defined as the 50% Cytotoxic concentration/50% activity concentration

[3] = tested on: eGFP-expressing recombinant CVB3; format: cell-based, coxsackievirus B3; conditions: for % of eGFP + cells, 0 Hr: compound added 0 hr post infection at its peak activity concentration, DMSO 26.0; for % of eGFP + cells, 0 Hr / % of eGFP + cells, 1 Hr / % of eGFP + cells, 2 Hr: read 6 hr post infection; for % of eGFP + cells, 1 Hr: compound added 1 hr post infection at its peak activity concentration, DMSO 23.7; for % of eGFP + cells, 2 Hr: compound added 2 hr post infection at its peak activity concentration, DMSO 24.8; for Inhibition of infected cells: eGFP-CVB3 m.o.i=1, compound added at time of infection, 6 hr post infection, 1-(% eGFP+ cells with compound/% with DMSO only)

SMILES | Log10 reduction of virus titer [1] | Selectivity index [2] | IC50 [2] [nM] | EC (peak activity) [2] [µM] | % of eGFP + cells, 0 Hr [3] [%] | % of eGFP + cells, 1 Hr [3] [%] | % of eGFP + cells, 2 Hr [3] [%] | Inhibition of infected cells [3] [%]
O=C(Nc1nc(CN2CCCC2)cs1)c1cc(-c2cccs2)nc2ccccc12 [Compound 33, N-[4-(1-Pyrrolidinylmethyl)-1,3-thiazol-2-yl)-2-(2-thienyl)-4-quinoline-carboxamide] | 4.5 | 44 | 570 | 3.13 | 0.0 | 0.0 | 0.0 | 100
Cl.OC(c1cc(C(F)(F)F)nc2c(C(F)(F)F)cccc12)C1CCCCN1 (centres unmarked) [Compound 22, [2,8-Bis (trifluoromethyl)-4-quinolinyl](2-piperidinyl)methanol hydrochloride (1:1), reference compound] | 4.0 | 6 | 1600 | 3.13 | 21.1 | 18.5 | 27.9 | 100
CC(C)n1ncc2c(C(=O)Nc3ccc4c(c3)OCO4)cc(-c3ccccc3)nc21 [Compound 21, N-(1,3-Benzodioxol-5-yl)-1-isopropyl-6-phenyl-1H-pyrazolo [3,4-b]pyridine-4-carboxamide] | 4.5 | 21 | 1190 | 3.13 | 0.0 | 0.0 | 0.0 | 100
Cc1nc(-c2cccc(NS(=O)(=O)c3ccc4c(c3)CCC(=O)N4)c2)cs1 [Compound 38, N-[3-(2-Methyl-1,3-thiazol-4-yl)phenyl]-2-oxo-1,2,3,4-tetrahydro-6-quinoline-sulfonamide] | 0.9 |  |  |  |  |  |  | 59.1
CN1c2ccccc2C(=O)NC1c1cc2ccccc2nc1N1CCOCC1 (centres unmarked) [Compound 23, 1-Methyl-2-[2-(4-morpholinyl)-3-quinolinyl]-2,3-dihydro-4(1H)-quinazolinone] | 4.4 | 54 | 920 | 3.13 | 0.1 | 3.8 | 0.0 | 100
COc1ccc(-c2nc3cnccn3c2NCc2ccc(C)cc2)cc1CO [Compound 59, (2-Methoxy-5-{3-[(4-methylbenzyl)amino]imidazo[1,2-a]pyrazin-2-yl}phenyl)methanol] | 1.3 |  |  |  |  |  |  | 75.2
Cc1ccc(-c2cc(C(=O)NN)c3ccccc3n2)s1 [Compound 25, 2-(5-Methyl-2-thienyl)-4-quinoline-carbohydrazide] | 3.7 | 32 | 780 | 3.13 | 0.1 | 0.1 | 0.0 | 100
CC(C)n1ncc2c(C(=O)Nc3cccc(S(C)(=O)=O)c3)cc(-c3cccs3)nc21 [Compound 10, 1-lsopropyl-N-[3-(methylsulfonyl)phenyl]-6-(2-thienyl)-1H-pyrazolo [3,4-b]pyridine-4-carboxamide] | 4.4 |  |  |  |  |  |  | 100
CC(C)c1cc(C(=O)Nc2cccc(N3CCCC3=O)c2)c2cnn(C(C)C)c2n1 [Compound 18, 1,6-Diisopropyl-N-[3-(2-oxo-1-pyrrolidinyl)phenyl]-1H-pyrazolo[3,4-b]pyridine-4-carboxamide] | 4.0 |  |  |  |  |  |  | 97.9
COc1ccc2nc(C)n3c4ccccc4c(NC(C)=O)c3c2c1 [Compound 49, N-(2-Methoxy-6-methylindolo[1,2-c]quinazolin-12-yl)acetamide] | 1.0 |  |  |  |  |  |  | 17.2
Cc1ccc(S(C)(=O)=O)cc1NC(=O)c1cc(C2CC2)nc2c1cnn2C(C)C [Compound 12, 6-Cyclopropyl-1-isopropyl-N-[2-methyl-5-(methylsulfonyl)phenyl]-1H-pyrazolo[3,4-b] pyridine-4-carboxamide] | 4.2 |  |  |  |  |  |  | 100
Cc1ccc2cc(CN(Cc3ccc(F)cc3)C(=O)c3cccs3)c(=O)[nH]c2c1C [Compound 37, N-[(7,8-Dimethyl-2-oxo-1,2-dihydro-3-quinolinyl)methyl]-N-(4-fluorobenzyl)-2-thiophene-carboxamide] | 4.2 |  |  |  |  |  |  | 99.7
CCn1ncc2c(C(=O)Nc3ccc(C#N)cc3)cc(-c3cccs3)nc21 [Compound 20, N-(4-Cyanophenyl)-1-ethyl-6-(2-thienyl)-1H-pyrazolo [3,4-b]pyridine-4-carboxamide] | 1.9 |  |  |  |  |  |  | 99.6
CC(C)n1ncc2c(C(=O)Nc3cccc(-c4nnco4)c3)cc(-c3ccccc3)nc21 [Compound 17, 1-Isopropyl-N-[3-(1,3,4-oxadiazol-2-yl)phenyl]-6-phenyl-1H-pyrazolo[3,4-b]pyridine-4-carboxamide] | 4.3 |  |  |  |  |  |  | 99.6
Cn1ccc(NC(=O)c2cc(-c3cccs3)nc3ccccc23)n1 [Compound 32, N-(1-Methyl-1H-pyrazol-3-yl)-2-(2-thienyl)-4-quinoline-carboxamide] | 4.0 |  |  |  |  |  |  | 100
Cl.OCCN1CCN(CC/C=C2/c3ccccc3Sc3ccc(Cl)cc32)CC1 [Compound 71, 2-[4-[3-(2-chlorothioxanthen-9-ylidene)propyl]piperazin-1-yl]ethanol hydrochloride, reference compound] | 4.2 |  |  |  |  |  |  | 99.1
CC(C)c1cc(C(=O)Nc2ccccc2N2CCN(C)CC2)c2cnn(C(C)C)c2n1 [Compound 15, 1,6-Diisopropyl-N-[2-(4-methyl-1-piperazinyl)phenyl)-1H-pyrazolo[3,4-b]pyridine-4-carboxamide] | 2.4 |  |  |  |  |  |  | 100
Cc1ccc2nc(N3CCN(Cc4nnnn4Cc4ccccc4)CC3)c(C#N)cc2c1 [Compound 36, 2-{4-[(1-Benzyl-1H-tetrazol-5-yl)methyl]-1-piperazinyl}-6-methyl-3-quinoline-carbonitnle] | 1.0 |  |  |  |  |  |  | 79.7
Brc1ccc(-c2csc3ncnc(Sc4nnc(C5CC5)o4)c23)cc1 [Compound 53, 5-(4-Bromophenyl)-4-[(5-cyclopropyl-1,3,4-oxadiazol-2-yl)sulfanyl]thieno [2,3-d]pyrimidine] | 1.8 |  |  |  |  |  |  | 100
COc1ccc(/N=c2\oc3ccccc3cc2C(=O)NCC2CCCO2)cc1 (centres unmarked) [Compound 62, (2Z)-2-[(4-Methoxyphenyl)imino]-N-(tetrahydro-2-furanylmethyl)-2H-chromene-3-carboxamide] | 1.5 |  |  |  |  |  |  | 90.4
O=C(c1ccc2c(c1)OCCO2)C1CCN(C(=O)c2ccc(-n3cccn3)cc2)CC1 [Compound 46, 2,3-Dihydro-1,4-benzodioxin-6-yl {1-[4-(1H-pyrazol-1-yl)benzoyl]-4-piperidinyl}methanone] | 1.3 |  |  |  |  |  |  | 82.6
Cc1nc2ccccc2c2c(NC(=O)c3cnccn3)c3ccccc3n12 [Compound 50, N-(6-Methylindolo [1,2-c]quinazolin-12-yl)-2-pyrazinecarboxamide] | 2.5 |  |  |  |  |  |  | 69.9
COc1cccc(NC(=O)c2cc(-c3cccs3)nc3c2cnn3C(C)C)c1 [Compound 8, 1-Isopropyl-N-(3-methoxyphenyl)-6-(2-thienyl)-1H-pyrazolo [3,4-b]pyridine-4-carboxamide] | 4.4 |  |  |  |  |  |  | 99.2
CCCSc1nc2ccccc2c(=O)n1Cc1ccccc1 [Compound 47, 3-Benzyl-2-(propylsulfanyl)-4(3H)-quinazolinone] | 4.1 |  |  |  |  |  |  | 100
O=C(N/N=C1/c2ccccc2-c2nc3ccccc3nc21)c1cccnc1 [Compound 51, N′-[(11Z)-11H-Indeno[1,2-b]quinoxalin-11-ylidene] nicotinohydrazide] | 0.1 |  |  |  |  |  |  | 1.6
Br.COc1ccc(C(=O)Cn2c(=N)n(Cc3ccc(C)cc3)c3ccccc32)cc1 [Compound 39, 1-[2-(4-Methoxyphenyl)-2-oxoethyl]-3-(4-methylbenzyl)-1,3-dihydro-2H-benzimidazol-2-iminium bromide] | 0.3 |  |  |  |  |  |  | 100
COc1ccc(NC(=O)c2cc(-c3cccs3)nc3c2cnn3C(C)C)cc1 [Compound 7, 1-Isopropyl-N-(4-methoxyphenyl)-6-(2-thienyl)-1H-pyrazolo [3,4-b]pyridine-4-carboxamide] | 4.3 |  |  |  |  |  |  | 99.5
CCCCNCC(=O)Nc1ccccc1N1CCCCC1 [Compound 65, N^2-Butyl-N-[2-(1-piperidinyl)phenyl] glycinamide] | −0.4 |  |  |  |  |  |  | 36.2
